Several values for one entry are separate records, joined by “and”; a condition that tells them apart may be missing. Equal values may be shown once.

A short description of this data set: photoluminescence quantum yield (fraction); solvent given as SMILES.

Turning to `COc1ccc2c(c1)c1c(c3cc(OC)ccc32)=[N+]2C(=C(c3c(C)cc(C)cc3C)c3cc4c5cc(OC)ccc5c5ccc(OC)cc5c4n3[B-]2(F)F)C=1`, the photoluminescence quantum yield came out at 0.08 (in C1CCCCC1); 0.001 (in C1CCOC1); 0.01 (in CC#N); 0.001 (in Cc1ccccc1); 0.001 (in ClCCl).
With `Cc1ccc(C)n1-c1ccc(C#N)cc1`, the photoluminescence quantum yield was 0.025 (in C1CCOC1); 0.026 (in CCCCCC); 0.035 (in CCCCCl); 0.019 (in CCOCC); 0.033 (in ClCCl).
For the compound `O=C(c1sc(-c2ccc(-c3cc(-c4cccs4)c(C(=O)N4CCOCC4)s3)s2)cc1-c1cccs1)N1CCOCC1`, the photoluminescence quantum yield (in ClCCl) was determined as 0.14.
Regarding `CN1/C(=C/C=C(/C=C/C2=[N+](C)c3ccccc3C2(C)C)c2ccc(C(F)(F)F)cc2)C(C)(C)c2ccccc21`, the photoluminescence quantum yield is, setting by setting: (in CCO) 0.11; (in CO) 0.09; (in CS(C)=O) 0.23.
Turning to `CCCCNc1ccc2n1[B-](F)(F)[N+]1=CC(/C=C/C(=O)OC(C)(C)C)=CC1=C2c1c(C)cc(C)cc1C`, under “in ClCCl”, the photoluminescence quantum yield was 0.59.
`CC(C)(C)c1ccc(-c2c3c(c(-c4ccccc4)c4cc5ccccc5cc24)Cc2c(c(-c4ccccc4)c4cc5ccccc5cc4c2-c2ccc(C(C)(C)C)cc2)C3)cc1`: the photoluminescence quantum yield (in ClCCl) amounted to 0.16.
Regarding `COc1ccc(-c2nc3c(ccc4ccccc43)oc2=O)cc1`, the photoluminescence quantum yield (in c1ccccc1) turned out to be 0.57.
Take `CC(C)(C)c1ccc2c(c1)c1cc(C(C)(C)C)ccc1n2-c1cc(C(=O)c2ccccc2)cc(-n2c3ccc(C(C)(C)C)cc3c3cc(C(C)(C)C)ccc32)c1`: the photoluminescence quantum yield is, setting by setting: (in Cc1ccccc1) 0.073; (in c1cc(-c2cccc(-n3c4ccccc4c4ccccc43)c2)cc(-n2c3ccccc3c3ccccc32)c1) 0.75.
As for `N#Cc1cnc(-c2c3ccccc3c(-c3ncc(C#N)cn3)c3ccccc23)nc1`, the photoluminescence quantum yield came out at 0.16 (in CCO) and 0.54 (in ClCCl).
With `COc1cccc(C2=c3c(c4ccc(C(C)(C)C)cc4c4cc(C(C)(C)C)ccc34)=[N+]3C2=C(c2ccccc2)c2c(-c4cccc(OC)c4)c4c5ccc(C(C)(C)C)cc5c5cc(C(C)(C)C)ccc5c4n2[B-]3(F)F)c1`, the photoluminescence quantum yield reads like this: (in C1CCCCC1) 0.62; (in C1CCOC1) 0.5; (in CC#N) 0.52; (in Cc1ccccc1) 0.43; (in ClCCl) 0.54.
Turning to `Cc1ccc(-n2c(-c3ccccc3O)nc(-c3ccccc3O)c2-c2ccccc2O)cc1`, the photoluminescence quantum yield was found to be 0.55 (in C1CCOC1); 0.6 (in CC(C)O); 0.54 (in CO); 0.31 (in CS(C)=O); 0.32 (in ClC(Cl)Cl); 0.37 (in ClCCl).
In turn, `CCCCCCN1C(=O)c2cccc3cc(/N=C\c4ccc(N(c5ccccc5)c5ccccc5)cc4)cc(c23)C1=O` gave a photoluminescence quantum yield (in ClC(Cl)Cl) of 0.14.
In the case of `O=C1/C(=C2\Sc3ccc(S(=O)(=O)Nc4ccccc4)cc3C2=O)Sc2ccc(S(=O)(=O)Nc3ccccc3)cc21`, the photoluminescence quantum yield reads like this: (in C1COCCO1) 0.358; (in CN(C)C=O) 0.018; (in CO) 0.006; (in CS(C)=O) 0.004.
Regarding `COC(=O)C(NC(=O)OC(C)(C)C)c1ccc2oc(-c3cccc(Oc4ccccc4)c3)nc2c1` (stereo not drawn), the photoluminescence quantum yield is 0.5 (in CC1CCCCC1), 0.37 (in CC#N) and 0.13 (in CO).
In turn, `CCCCn1c2ccccc2c2ccc(C#Cc3ccc4ccc5cccc6ccc3c4c56)cc21` displayed a photoluminescence quantum yield (in ClCCl) of 0.62.
Same read-out and setting: as for `COCCOCCOCN1C(=O)c2ccc3c(-c4ccccc4)c4c5ccc6c7c(ccc(c(-c8ccccc8)c4c4ccc(c2c34)C1=O)c75)C(=O)N(COCCOCCOC)C6=O`, the figure is 0.05.
For the compound `CCCCCCCCCCc1cc(-c2cc(CCCCCCCCCC)c(-c3cccs3)s2)sc1-c1cccs1`, the photoluminescence quantum yield (in CCC(C)C) came to 0.16.
With `F[Si-](F)(c1ccccc1)(c1c2ccccc2cc2ccccc12)c1c2ccccc2cc2ccccc12`, the photoluminescence quantum yield (in C1CCOC1) was determined as 0.46.
Regarding `CCCCN(CCCC)c1ccc(C#Cc2cc(C#Cc3ccc(N(CCCC)CCCC)cc3)c(C#Cc3ccc(C(F)(F)F)cc3)cc2C#Cc2ccc(C(F)(F)F)cc2)cc1`, the photoluminescence quantum yield (in ClCCl) is 0.38.
As for `Cc1cc2nc3cc(C)c(N)cc3[n+](-c3ccccc3)c2cc1N`, the photoluminescence quantum yield amounted to 0.292 (in CCO) and 0.058 (in O).
Consider `CC(=O)c1c2c(cc3c(N(C)C)cccc13)CCC2`, for which the photoluminescence quantum yield runs as follows: (in C1CCCCC1) 0.28; (in C1CCOC1) 0.39; (in C1COCCO1) 0.44; (in CC#N) 0.23; (in CCO) 0.01; (in CS(C)=O) 0.48. In addition, the photoluminescence quantum yield (in Cc1ccccc1) came to 0.47, the photoluminescence quantum yield (in ClC(Cl)Cl) was 0.4 and the photoluminescence quantum yield (in ClCCl) was determined as 0.6.
Turning to `N#CC1=c2cc3c4c(c2Oc2c1cc1c5c2CCCN5CCC1)CCC[N+]=4CCC3`, for the setting “in CCO”, the photoluminescence quantum yield stood at 0.25.
Where the note is “in ClCCl”, `O=c1cc(-c2ccccc2)oc(-c2ccc(-c3nc4ccccn4c3NC3CCCCC3)cc2)c1` displayed a photoluminescence quantum yield of 0.028.
Turning to `O=C(/C=C(\O)c1ccc(N2c3ccccc3Oc3ccccc32)cc1)c1ccc(N2c3ccccc3Oc3ccccc32)cc1`, where the note is “in c1ccc2c(c1)c1ccccc1n2-c1ccc(-c2ccc(-n3c4ccccc4c4ccccc43)cc2)cc1”, the photoluminescence quantum yield was determined as 0.68.
In the case of `COc1ccc(/C=C/c2nc(/C=C/c3ccc(N(c4ccccc4)c4ccccc4)cc3)cc(/C=C/c3ccc(N(c4ccccc4)c4ccccc4)cc3)n2)cc1`, for the setting “in ClCCl”, the photoluminescence quantum yield was 0.91.
For the compound `CCC1=C(C)C(=O)n2c1cc1c(CCC(=O)O)c(C)c(C)n1c2=O`, the photoluminescence quantum yield amounted to 0.95 (in CO), 1 (in CS(C)=O), 1 (in ClC(Cl)Cl) and 0.84 (in c1ccccc1).
Compound `c1ccc(-c2nn(-c3ccccc3)c3nc4ccc(-n5c6ccccc6c6ccccc65)cc4cc23)cc1` registered a photoluminescence quantum yield (in C1CCCCC1) of 0.88; a photoluminescence quantum yield (in C1CCOC1) of 0.81; a photoluminescence quantum yield (in CC#N) of 0.72; a photoluminescence quantum yield (in CC(C)=O) of 0.72; a photoluminescence quantum yield (in CCCCCl) of 0.88; a photoluminescence quantum yield (in CCCCOCCCC) of 0.7. The photoluminescence quantum yield (in CN(C)C=O) worked out at 0.76.
Compound `CCC1=C(C)C2=C(/C=C/c3ccc(OC)cc3)c3c(C)c(CC)c(C)n3[B-](F)(F)[N+]2=C1C` showed a photoluminescence quantum yield (in ClCCl) of 0.01.
In the case of `CC1=CC(/C=C/c2ccc(OCCCN=[N+]=[N-])cc2)=[N+]2C1=C(c1ccc(N3CCCCC3)cc1)c1c(C)cc(C)n1[B-]2(F)F`, the photoluminescence quantum yield (in CO) came out at 0.81.
With `CCCCCCc1ccsc1-c1cc2c3cc(-c4sccc4CCCCCC)c4nc(C(F)(F)C(F)(F)C(F)(F)F)nc5c(-c6sccc6CCCCCC)cc(c6cc(-c7sccc7CCCCCC)c7nc(C(F)(F)C(F)(F)C(F)(F)F)nc1c7c26)c3c45`, the photoluminescence quantum yield (in C1CCOC1) turned out to be 0.65.
Take `CC1=[N+]2C(=C(c3c4ccccc4cc4ccccc34)c3ccc(C)n3[B-]2(F)F)C=C1`: the photoluminescence quantum yield by setting is: (in C1CCOC1) 0.002; (in CC#N) 0.002; (in CCO) 0.005; (in CN(C)C=O) 0.003; (in CO) 0.001; (in CS(C)=O) 0.002. Also, the photoluminescence quantum yield is 0.29 (in Cc1ccccc1); 0.01 and 0.004 (in ClC(Cl)Cl).
`COc1ccc2c(c1)N(c1ccc(C)cc1)c1cc3c(cc1=N2)Oc1c(cc(C(C)(C)C)cc1C(C)(C)C)N=3` showed a photoluminescence quantum yield (in CCCCCC) of 0.35.
Turning to `C(#Cc1cccc2nsnc12)c1ccc(-n2c3ccccc3c3ccccc32)cc1`, the photoluminescence quantum yield (in ClCCl) came out at 0.54.
In turn, `Fc1cccc(-[c+]2c3ccccc3oc3ccccc32)c1` came in with a photoluminescence quantum yield (in CC#N) of 0.18.
As for `CN(C)c1ccc2c3c(c(=O)oc2c1)C=c1cc2c(cc1O3)=[N+](CCC(=O)O)CCC2`, the photoluminescence quantum yield is 0.242 (in CC#N), 0.166 (in CO), 0.685 (in ClCCl) and 0.041 (in O).
Take `COc1cc(OC)c2c(c1)c1cc3oc(=O)cc(C)c3cc1c1cc(OC)cc(OC)c12`: the photoluminescence quantum yield (in ClC(Cl)Cl) turned out to be 0.1.
With `c1ccc(-c2nc(-c3ccccc3)nc(-c3cc(-n4c5ccccc5c5ccccc54)cc(-n4c5ccccc5c5ccccc54)c3)n2)cc1`, for the setting “in O=P(c1ccccc1)(c1ccccc1)c1ccc2oc3ccc(P(=O)(c4ccccc4)c4ccccc4)cc3c2c1”, the photoluminescence quantum yield came to 0.58.
On to `CCCCc1cc2cccc[n+]2[b-]2ccc(-c3cc[b-]4c(c3)c(CCCC)cc3cccc[n+]43)cc21`, for which, under “in C1CCCCC1”, the photoluminescence quantum yield turned out to be 0.05.
On to `O=Cc1nc2ccc(C#Cc3ccc(N(c4ccc(C#Cc5ccc6nc(C=O)sc6c5)cc4)c4ccc(C#Cc5ccc6nc(C=O)sc6c5)cc4)cc3)cc2s1`, for which, under “in Cc1ccccc1”, the photoluminescence quantum yield was found to be 0.65.
Consider `C[Si]1(C)O[Si](C)(C)c2cc3nc4ccccc4c(-c4ccccc4)c3cc2[Si](C)(C)O1`, for which, where the note is “in ClCCl”, the photoluminescence quantum yield was determined as 0.42.
In turn, `Cc1oc2c(Cl)cc3c(C)cc(=O)oc3c2c1C` gave a photoluminescence quantum yield (in C1CCCCC1) of 0.0005; a photoluminescence quantum yield (in C1COCCO1) of 0.003; a photoluminescence quantum yield (in CC#N) of 0.007; a photoluminescence quantum yield (in CCO) of 0.02; a photoluminescence quantum yield (in OCC(F)(F)F) of 0.04.
As to `N#Cc1cc(C#N)cc(-n2c3ccccc3c3cc(-c4ccc5c(c4)c4ccccc4n5-c4cc(C#N)cc(C#N)c4)ccc32)c1`, the photoluminescence quantum yield was 0.5 (in Cc1ccccc1) and 0.58 (in O=P(c1ccccc1)(c1ccccc1)c1ccccc1Oc1ccccc1P(=O)(c1ccccc1)c1ccccc1).
`COc1cc(C(=O)O)ccc1O` displayed a photoluminescence quantum yield (in O) of 0.03.
For `COc1ccc(-c2ccc3c(c2)[Si](C)(C)c2cc(-c4ccc(OC)cc4)ccc2C=C3)cc1`, for the setting “in ClCCl”, the photoluminescence quantum yield was found to be 0.93.

Values taken from the Deep4Chem optical property database.
